Experimental data: patent publication US20250113823A1, “Arthropod Control Compositions” (priority 2022, published 2025)
Like-named read-outs stand apart in the source and are kept apart here.

System: Aedes aegypti
Experiment: Warm Body assay, mosquito landings on treated warm body
Format: in vivo
Settings: for pest or weed control at 3.2 µg/mL / pest or weed control at 7.1 µg/mL / pest or weed control at 16 µg/mL / pest or weed control at 35.7 µg/mL / pest or weed control at 53 µg/mL / pest or weed control at 80 µg/mL / pest or weed control at 119 µg/mL / pest or weed control at 178 µg/mL / pest or weed control at 267 µg/mL / pest or weed control at 400 µg/mL / pest or weed control at 598 µg/mL / pest or weed control at 890 µg/mL / pest or weed control at 2000 µg/mL / pest or weed control at 4470 µg/mL / pest or weed control at 10000 µg/mL / pest or weed control at 1 % / pest or weed control at 0.0016 % / pest or weed control at 0.04 %: Aedes aegypti; for pest or weed control at 3.2 µg/mL: 0.0032 mg/mL (Table 1); for pest or weed control at 3.2 µg/mL / pest or weed control at 7.1 µg/mL / pest or weed control at 16 µg/mL / pest or weed control at 35.7 µg/mL / pest or weed control at 53 µg/mL / pest or weed control at 80 µg/mL / pest or weed control at 119 µg/mL / pest or weed control at 178 µg/mL / pest or weed control at 267 µg/mL / pest or weed control at 400 µg/mL / pest or weed control at 598 µg/mL / pest or weed control at 890 µg/mL / pest or weed control at 2000 µg/mL / pest or weed control at 4470 µg/mL / pest or weed control at 10000 µg/mL: read-out: Percentage of repellence of mosquitoes Aedes aegypti landing on the warm body; for pest or weed control at 7.1 µg/mL: 0.0071 mg/mL (Table 1); for pest or weed control at 35.7 µg/mL: 0.0357 mg/mL (Table 1); for pest or weed control at 53 µg/mL: 0.053 mg/mL (Table 1); for pest or weed control at 80 µg/mL: 0.08 mg/mL (Table 1); for pest or weed control at 119 µg/mL: 0.119 mg/mL (Table 1); for pest or weed control at 178 µg/mL: 0.178 mg/mL (Table 1); for pest or weed control at 267 µg/mL: 0.267 mg/mL (Table 1); for pest or weed control at 598 µg/mL: 0.598 mg/mL (Table 1); for pest or weed control at 890 µg/mL: 0.89 mg/mL (Table 1); for pest or weed control at 2000 µg/mL: 2 mg/mL (Table 1); for pest or weed control at 4470 µg/mL: 4.47 mg/mL (Table 1); for pest or weed control at 1 % / mosquito landing within the two minutes of experiments: highest tested concentration, 1% (Table 3); for pest or weed control at 1 % / pest or weed control at 0.04 %: read-out: repellence; for pest or weed control at 0.0016 %: read-out: reduce the number of mosquito landings; for pest or weed control at 0.04 %: intermediate concentration of 0.04% (Table 3)
Procedure: The arthropod controlling effect according to the present invention is determined on mosquitoes using an adapted Warm Body assay as defined in Kröber T, Kessler S, Frei J, Bourquin M, Guerin PM. An in vitro assay for testing mosquito controlling compounds employing a warm body and carbon dioxide as a behavioral activator. J Am Mosq Control Assoc. 2010; 26: 381-386. Further information is provided in the accompanying examples
The controlling effect, repellence & spatial repellence, according to the present invention is determined by testing the Warm Body assay against the yellow fever mosquito, Aedes aegypti Rockefeller strain. […] Observations of controlling efficacy were made on host-seeking females of uniform age, 5 to 10 days old selected as mentioned in the publication mentioned hereinabove. Tested hungry females had access to 10% sugar solution but were not blood-fed. Further information is provided in the accompanying examples.
The published protocol has been adapted in not manually counting the landing mosquitoes but automatically using an automatic counting software, the switch from Anopheles gambiae to A. aegypti led to a decrease of mosquitoes' number placed in the tested cage due to the size difference (i.e. 30 mosquitoes instead of 50) and to an increase of lighting as A. aegypti is a diurnal mosquitoes (i.e. 150 lux instead of 4 lux). Further information is provided in the accompanying examples. […]
The controlling effect according to the present invention was assessed using an adapted Warm Body assay as defined in Kröber T, Kessler S, Frei J, Bourquin M, Guerin P M. 2010. J Am Mosq Control Assoc. 26: 381-386. In this in-vitro assay the number of mosquito landing on a warm body, simulating an attractive host treated with the tested stimuli, was measured in order to assess the repellence effect.
The published protocol has been adapted as the switch from Anopheles gambiae to Aedes aegypti led to a decrease of mosquitoes placed in the tested cage due to the size difference (i.e. 30 mosquitoes instead of 50) and to an increase of lighting since A. aegypti is a diurnal mosquitoes (i.e. 150 lux instead of 4 lux).
On the sandblasted glass Petri dish covering the warm body (28.3 cm^2), 100 μL of the compounds diluted at different concentrations in ethanol was applied. The number of mosquito landing on the warm body was counted for each stimulus and pure ethanol (solvent) as control.

[1] = lowest concentration of 0.0016% (Table 3)

## CCCc1cc(OC)c(O)c(OC)c1 [compound 1502, 2,6-dimethoxy-4-propylphenol]
  pest or weed control at 3.2 µg/mL: 0%
  pest or weed control at 7.1 µg/mL: 0%
  pest or weed control at 35.7 µg/mL: 0%
  pest or weed control at 53 µg/mL: 61%
  pest or weed control at 80 µg/mL: 0%
  pest or weed control at 119 µg/mL: 14%
  pest or weed control at 178 µg/mL: 94%
  pest or weed control at 267 µg/mL: 94%
  pest or weed control at 598 µg/mL: 94%
  pest or weed control at 890 µg/mL: 99%
  pest or weed control at 2000 µg/mL: 96%
  pest or weed control at 4470 µg/mL: 100%
0.016 mg/mL (Table 1)
  pest or weed control at 16 µg/mL: 32%
0.4 mg/mL (Table 1)
  pest or weed control at 400 µg/mL: 88%
10 mg/mL (Table 1)
  pest or weed control at 10000 µg/mL: 96%

## CC=Cc1cc(OC)c(O)c(OC)c1 [compound 1124, 2,6-dimethoxy-4-[prop-1-enyl]phenol]
  pest or weed control at 3.2 µg/mL: 26%
  pest or weed control at 7.1 µg/mL: 40%
  pest or weed control at 35.7 µg/mL: 0%
  pest or weed control at 53 µg/mL: 48%
  pest or weed control at 80 µg/mL: 84%
  pest or weed control at 119 µg/mL: 35%
  pest or weed control at 178 µg/mL: 66%
  pest or weed control at 267 µg/mL: 59%
  pest or weed control at 598 µg/mL: 69%
  pest or weed control at 890 µg/mL: 78%
  pest or weed control at 2000 µg/mL: 95%
  pest or weed control at 4470 µg/mL: 85%
0.016 mg/mL (Table 1)
  pest or weed control at 16 µg/mL: 62%
0.4 mg/mL (Table 1)
  pest or weed control at 400 µg/mL: 78%
10 mg/mL (Table 1)
  pest or weed control at 10000 µg/mL: 98%

## C=CCc1cc(OC)c(OC)c(OC)c1 [compound 1682, 1,2,3-trimethoxy-5-prop-2-enylbenzene]
0.016 mg/mL (Table 3)
  pest or weed control at 16 µg/mL: 0%
0.4 mg/mL (Table 3)
  pest or weed control at 400 µg/mL: 73%
10 mg/mL (Table 3)
  pest or weed control at 10000 µg/mL: 90%
  pest or weed control at 1 %: > 90%

## COc1ccc2ccc(=O)oc2c1O [compound 1551, 8-hydroxy-7-methoxychromen-2-one]
0.016 mg/mL (Table 3)
  pest or weed control at 16 µg/mL: 55%
0.4 mg/mL (Table 3)
  pest or weed control at 400 µg/mL: 42%
10 mg/mL (Table 3)
  pest or weed control at 10000 µg/mL: 91%
  pest or weed control at 1 %: > 90%
[1]
  pest or weed control at 0.0016 %: > 50%

## COc1cc(CC(=O)O)ccc1O [compound 1567, 2-(4-hydroxy-3-methoxyphenyl)acetic acid]
0.016 mg/mL (Table 3)
  pest or weed control at 16 µg/mL: 54%
0.4 mg/mL (Table 3)
  pest or weed control at 400 µg/mL: 86%
10 mg/mL (Table 3)
  pest or weed control at 10000 µg/mL: 98%
  pest or weed control at 1 %: > 90%
  pest or weed control at 0.04 %: > 75%
  pest or weed control at 0.0016 %: > 50%

## CC=Cc1cc(OC)c(OC)c(OC)c1 [compound 1126, 1,2,3-trimethoxy-5-prop-1-enylbenzene]
0.016 mg/mL (Table 3)
  pest or weed control at 16 µg/mL: 31%
0.4 mg/mL (Table 3)
  pest or weed control at 400 µg/mL: 71%
10 mg/mL (Table 3)
  pest or weed control at 10000 µg/mL: 90%
  pest or weed control at 1 %: > 90%

## COc1cc(CO)cc(OC)c1OC [compound 1968, (3,4,5-trimethoxyphenyl)methanol]
0.016 mg/mL (Table 3)
  pest or weed control at 16 µg/mL: 23%
0.4 mg/mL (Table 3)
  pest or weed control at 400 µg/mL: 38%
10 mg/mL (Table 3)
  pest or weed control at 10000 µg/mL: 100%
  pest or weed control at 1 %: > 90%
  mosquito landing within the two minutes of experiments: protect the attractive stimulus for any mosquito landing

## COc1cc(C)cc(OC)c1OC [compound 2250, 1,2,3-trimethoxy-5-methybenzene]
0.016 mg/mL (Table 3)
  Percentage of repellence of mosquitoes Aedes aegypti landing on the warm body: 21%
0.4 mg/mL (Table 3)
  Percentage of repellence of mosquitoes Aedes aegypti landing on the warm body: 57%
10 mg/mL (Table 3)
  Percentage of repellence of mosquitoes Aedes aegypti landing on the warm body: 100%
  mosquito landing within the two minutes of experiments: protect the attractive stimulus for any mosquito landing

## COc1cc(C=NCCN=Cc2cc(OC)c(OC)c(OC)c2)cc(OC)c1OC [compound 1980, 1-(3,4,5-trimethoxyphenyl)-N-[2-[(3,4,5-trimethoxyphenyl)methylideneamino]ethyl]methanimine]
  pest or weed control at 3.2 µg/mL: 53%
  pest or weed control at 7.1 µg/mL: 57%
  pest or weed control at 35.7 µg/mL: 32%
  pest or weed control at 53 µg/mL: 77%
  pest or weed control at 80 µg/mL: 92%
  pest or weed control at 119 µg/mL: 75%
  pest or weed control at 178 µg/mL: 67%
  pest or weed control at 267 µg/mL: 84%
  pest or weed control at 598 µg/mL: 88%
  pest or weed control at 890 µg/mL: 63%
  pest or weed control at 2000 µg/mL: 86%
  pest or weed control at 4470 µg/mL: 71%
0.016 mg/mL (Table 1)
  pest or weed control at 16 µg/mL: 34%
0.4 mg/mL (Table 1)
  pest or weed control at 400 µg/mL: 81%
10 mg/mL (Table 1)
  pest or weed control at 10000 µg/mL: 96%

## CCOc1cc(C=O)ccc1OC(=O)C(C)C [compound 1469, (2-ethoxy-4-formylphenyl) 2-methylpropanoate]
0.016 mg/mL (Table 3)
  pest or weed control at 16 µg/mL: 64%
0.4 mg/mL (Table 3)
  pest or weed control at 400 µg/mL: 65%
10 mg/mL (Table 3)
  pest or weed control at 10000 µg/mL: 95%
  pest or weed control at 1 %: > 90%
[1]
  pest or weed control at 0.0016 %: > 50%

## COc1ccc(CCC(=O)O)cc1OC [compound 1561, 3-(3,4-dimethoxyphenyl)propanoic acid]
0.016 mg/mL (Table 3)
  pest or weed control at 16 µg/mL: 9%
0.4 mg/mL (Table 3)
  pest or weed control at 400 µg/mL: 37%
10 mg/mL (Table 3)
  pest or weed control at 10000 µg/mL: 84%

## COc1cc(C=CCOC(C)=O)cc(OC)c1OC [compound 2247, 3-(3,4,5-trimethoxyphenyl)-2-acetate]
0.016 mg/mL (Table 3)
  Percentage of repellence of mosquitoes Aedes aegypti landing on the warm body: 39%
0.4 mg/mL (Table 3)
  Percentage of repellence of mosquitoes Aedes aegypti landing on the warm body: 44%
10 mg/mL (Table 3)
  Percentage of repellence of mosquitoes Aedes aegypti landing on the warm body: 98%

## COc1cc(C=CC(=O)O)cc(OC)c1O [compound 1553, 3-(4-hydroxy-3,5-dimethoxyphenyl)prop-2-enoic acid]
0.016 mg/mL (Table 3)
  pest or weed control at 16 µg/mL: 60%
0.4 mg/mL (Table 3)
  pest or weed control at 400 µg/mL: 85%
10 mg/mL (Table 3)
  pest or weed control at 10000 µg/mL: 43%
  pest or weed control at 0.04 %: > 75%
[1]
  pest or weed control at 0.0016 %: > 50%

## CCOc1cc(C=O)ccc1OC [compound 2272, 3-ethoxy-4-methoxybenzaldehyde]
0.016 mg/mL (Table 3)
  pest or weed control at 16 µg/mL: 0%
0.4 mg/mL (Table 3)
  pest or weed control at 400 µg/mL: 77%
10 mg/mL (Table 3)
  pest or weed control at 10000 µg/mL: 89%
  pest or weed control at 0.04 %: > 75%

## COc1cc(C2CCCO2)ccc1O (centres unmarked) [compound 1481, 2-methoxy-4-(oxolan-2-yl)phenol]
0.016 mg/mL (Table 3)
  pest or weed control at 16 µg/mL: 21%
0.4 mg/mL (Table 3)
  pest or weed control at 400 µg/mL: 89%
10 mg/mL (Table 3)
  pest or weed control at 10000 µg/mL: 97%
  pest or weed control at 1 %: > 90%
  pest or weed control at 0.04 %: > 75%
